In patent publication US10188727B2, “Bifunctional molecules with antibody-recruiting and entry inhibitory activity against the human immunodeficiency virus” (YALE UNIVERSITY, priority 2009, dated 2019):
“Also recorded” adds a separate entry of the source. Read-outs that look alike come from different tables or passages of the source.

How the values were obtained:
wild-type HIV IIIB = assay: MT-2 cell assay, antiviral activity (MTT); assay type: cell-based, HIV-1
Description: (§1) Antiviral activity and cellular toxicity were determined using the MTT colorimetric method^7,8. MT-2 cell^9,10 at a concentration of 1×10^5 cells per milliliter were infected with wild-type HIV IIIB^11,12,13 at a multiplicity of infection (MOI) of 0.1. Infected and mock-infected cells were incubated in growth medium (RPMI 1640, 10% δFBS, kanamycin) for 5 days with varying concentrations of each compound being tested in triplicate in a 96-well plate. MIT (thiazolyl blue tetrazolium bromide), a cell-permeable tetrazolium dye was then added to each well. Active mitochondria reduce the yellow tetrazolium salt to a blue formazan precipitate. After 5 h, stop solution (86% isopropanol, 4% NP-40, 10% H2O, and 0.3% concentrated HCl) was added to lyse the cells and stop the reaction. The plates were gently shaken gently overnight on a horizontal rotator, and quantitated the following morning. Cell viability was measured spectrophotometrically by quantifying the amount of purple precipitate via determining the absorbance at 595 nm using a Multiskan Plus from Labsystems (Helsinki, Finland) microplate reader. The average of these triplicate samples was then plotted versus inhibitor concentration to generate dose-response curves. The 50% effective concentration (EC50) and 50% cytotoxic concentration (CC50) of the compounds were defined as the concentrations required to inhibit viral replication and to reduce the number of viable cells by 50%, respectively. Positive controls were done during each set of experiments using d4T and the appropriate parent NNRTI (HI-236 or TMC-derivative). Data were quantitated using KaleidaGraph (Synergy Software). ^7. Mosmann, T. J. Immunol Methods 1983, 65, 55-63.^8. Pannecouque, C.; Daelemans, D.; Clercq, E. D. Nat Protoc. 2008, 3, 427-434.^9. Haertle, T.; Carrera, C. J.; Wasson, D. B.; Sowers, L. C.; Richman, D. D.; Carson, D. A. J. Biol Chem. 1988, 263, 5870-5875.^10. Harada, S.; Koyanagi, Y.; Yamamoto, N. Science 1985, 229, 563-566.^11. Popovic, M.; Read-Connole, E.; Gallo, R. C. […] Popovic, M.; Samgadharan, M. G.; Read, E.; Gallo, R. C. […]

CD4-gp120 interaction = CD4-gp120 interaction (Human immunodeficiency virus type 1, UniProt Q75760); assay: CD4 inhibition ELISA (competition ELISA, sCD4 binding to immobilized gp120); set-up: species or system HIV-1
Description: CD4 Inhibition ELISA (FIG. 2A)
This procedure was adapted from the protocol reported by Lin, et al.^14. 96 well plates (Nunc; Immuno) were coated overnight at 4° C. with soluble recombinant HIV-1 gp120JRFL (Immune Technology; Yonkers, N.Y.) at 1 μg/ml in 0.05M Buffer A (carbonate/bicarbonate, pH=9.6, Aldrich). Plates were washed with PBS (Aldrich, 1×100 μL) and then blocked with 3% nonfat milk in phosphate buffered saline solution (PBS, Aldrich) for 1 hr at room temperature. After washing with Buffer B (50 mM Tris HCl, 100 mM NaCl, 0.05% Tween-20, pH 7.4), varying concentrations of the inhibitor were added simultaneously with recombinant human T-cell CD4 (ImmunoDiagnostics, Inc; Woburn, Mass.) in Buffer C (50 mM Tris HCl, 100 mM NaCl, 1% BSA, pH 7.4) so that the final concentration/well of CD4 is 0.1 μg/mL and plates were incubated for 1 hr at room temperature. Plates were washed with Buffer B (3×100 μL) and then incubated with mouse OKT4 anti-CD4 IgG antibody (Biolegend; San Diego, Calif.) at 0.36 μg/ml in Buffer C at RT for 1 hr. Following washes with Buffer B, plates were incubated with horse radish peroxidase (HRP)-conjugated goat anti-mouse antibody (1:2500; Biolegend; San Diego, Calif.). Bound antibody was detected with 3,3,5,5-tetramethylbenzidine (TMB, Pierce Protein Research Products), the chromogenic substrate for HPR, and absorbance was read at 450 nm. […]

MT-2 cells = assay: MT-2 cell assay, cellular toxicity in mock-infected cells (MTT); assay type: cell-based, human; conditions: control MT-2 cultures lacking HIV virus
Description: as §1, with “The 50% effective concentration (EC50) and 50% cytotoxic concentration (CC50) of the compounds were defined as the concentrations required to inhibit viral replication and to reduce the number of viable cells by 50%, respectively. Positive controls were done during each set of experiments using d4T and the appropriate parent NNRTI (HI-236 or TMC-derivative).” left out, “Mosmann, T. J. Immunol Methods 1983, 65, 55-63.^8. Pannecouque, C.; Daelemans, D.; Clercq, E. D. Nat Protoc. 2008, 3, 427-434.^9. Haertle, T.; Carrera, C. J.; Wasson, D. B.; Sowers, L. C.; Richman, D. D.; Carson, D. A. J. Biol Chem. 1988, 263, 5870-5875.^10. Harada, S.; Koyanagi, Y.; Yamamoto, N. Science 1985, 229, 563-566.^11.” left out

CHO-gp120 cells [1] = assay: CDC assay (complement-dependent cytotoxicity) on Env-expressing cells; assay type: cell-based, Chinese hamster
Description: CDC Assay (FIG. 4 and FIG. 8)
CHO-WT or CHO-K1 cells taken from a T-75 flask (˜80% confluent), were washed once with DPBS (Gibco, 5 mL), and cells were then detached with 2.5 mM EDTA/0.5 mM EGTA in DPBS. Resulting cell suspension was centrifuged at 900 rpm for five minutes, then pellet was aspirated and re-suspended at a density of 9.00×10^5 cells/mL in Buffer E. Subsequently, cell suspension was added to prepared dilutions of ARM-H (4) (or control molecule) in Buffer E. Resulting cell mixtures were plated in triplicate (50 μL, 22,500 cells/well)□ onto 96 well plates (CoStar, black sides/clear bottom), covered with tin foil and incubated at 4° C. for 1.5 hours. To each well, 50 μL of 20% rabbit complement serum (v/v, Aldrich) and 100 μg/mL rat anti-DNP IgG (Zymed; Carlsbad, Calif.) in Buffer E was added, resulting in a 10% (v/v) complement and 50 μg/mL antibody concentration per well. Negative control wells containing only ARM-H dilutions were prepared in addition to maximum cell death controls (0.15% H2O2). Covered plate was incubated for an additional hour at 4° C. and then for 4 hours at room temperature. All control experiments were conducted following the same protocol. Cell viability was determined using the luciferase-based CellTiter-Glo Luminescent Cell Viability Assay (Promega). Complement mediated cell death and cytotoxicity was calculated as: [1−((sample-max killing)/(untreated-max killing))]×100 and plotted using GraphPad Prism. Raw data was subjected to Dixon Q-test analysis at the 90% confidence interval and statistical outliers removed accordingly^16,17. ^16. Dean, R. B.; Dixon, W. J. Anal. Chem. 1951, 23, 636-638.^17. Efstathiou, C. E. Talanta 2006, 69, 1068-1071.

CHO-gp120 cells [2] = assay: Immunofluorescence microscopy, recruitment of labeled anti-DNP antibodies; assay type: cell-based, Chinese hamster; conditions: ARM-H plus competing ligand
Description: Immunofluorescence (FIG. 3)
Confluent CHO-WT (env expressing) or CHO-K1 (non-env expressing) cells were incubated on cover slips (15CIR-1D, Fisher) over 2 nights at 37° C. in 5% CO2. Cover slips were washed with DPBS (1 mL, Gibco) and then cells fixed with 4% parafomaldehyde in DPBS at 4° C. for 10 minutes. […] Cover slips then washed with Buffer E (2×70 μl) and incubated with AlexaFluor488 rabbit anti-DNP IgG antibodies (Invitrogen) at 15 μg/ml in Buffer E (70 μl) for 1 hr at 4° C. All cover slips were washed prior to mounting onto slides using Gel Mount mounting medium (Biomeda Corp.) with Buffer E and water. Corresponding competition experiments were performed in the presence of recombinant human T-cell CD4 (ImmunoDiagnostics, Inc; Woburn, Mass.), BMS-378806 (1) and DNP-PEG-alkyne (2). Cells were checked using a Zeiss Axiovert 200M fluorescence microscope equipped with a GFP filter.

CHO-K1 cells = assay: Flow cytometry detection of DNP labeling; assay type: cell-based, Chinese hamster; conditions: higher concentrations of labeling reagent, data not shown
Description: Flow Cytometry Detection of DNP Labeling (FIG. 9)
CHO-K1 cells taken from a T-75 flask (˜80% confluent), were washed once with DPBS (Gibco, 5 mL), and cells were then detached with 2.5 mM EDTA/0.5 mM EGTA in DPBS. Resulting cell suspension was centrifuged at 900 rpm for five minutes, then pellet was aspirated and re-suspended at a density of 1.40×10^6 cells/mL in F12-K growth medium. Cells were incubated with 2,4-dinitrobenzenesulfonic acid (TCI, 50 mg/mL solution in MeOH) at varying concentrations for 30 min. at room temperature. Cells centrifuged and washed with growth medium (×3) and then aliquoted (0.5 ml) into Eppendorf tubes at a cell density of 1.40×10^6 cells/mL. Cells incubated with AlexaFluor 488 conjugated rabbit anti-DNP IgG (Invitrogen) antibodies (20 μg/mL) for 1 hr at 4° C. Cells were subsequently centrifuged, washed with DPBS (3×0.5 mL), resuspended in 0.5 mL DPBS containing 150 μg of propidium iodide (to monitor cell death) and immediately analyzed for fluorescence using a FACSCalibur flow cytometer (Becton Dickinson) monitoring at least 10,000 events/measurement. Data were analyzed using FlowJo Analysis Software (Tree Star).

Compound: C[C@@H]1CN(C(=O)c2ccccc2)CCN1C(=O)C(=O)c1c[nH]c2nccc(OCCOCCOCCOCCOCCOCCn3cc(COCCOCCOCCOCCNc4ccc([N+](=O)[O-])cc4[N+](=O)[O-])nn3)c12 [ARM-H]
- IC50 (wild-type HIV IIIB; Human immunodeficiency virus 1, IIIB, MT2, live HIV-1, human MT-2 T-cell line, read-out: IC50, HIV-1 inhibition in MT-2 cell assay): 6.4 µM
- IC50 (CD4-gp120 interaction): ~8.7 µM
- cytotoxicity in MT-2 cells (MT-2 cells): no observable cytotoxicity; also recorded: no non specific cytotoxicity
- non specific cytotoxicity in CHO cell lines (CHO-gp120 cells [1]; CHO cell lines): no non specific cytotoxicity
- cell death without antibody and complement (CHO-gp120 cells [1]; CHO-gp120 cells, absence of anti-DNP antibody and complement-preserved serum): no cell death was observed
- concentrations at which inhibition of HIV entry and CDC activity were both operative (CHO-gp120 cells [1]; MT-2 entry inhibition and CDC together): 6 to 30 µM

Compound: COc1ccnc2[nH]cc(C(=O)C(=O)N3CCN(C(=O)c4ccccc4)C[C@H]3C)c12 [Formula 1, 4-benzoyl-1-(2-(4-methoxy-1H-pyrrolo(2,3-b)pyridin-3-yl)-1,2-dioxoethyl)-2-methyl-, (2R)-Piperazine, reference compound]
- IC50 (wild-type HIV IIIB; Human immunodeficiency virus 1, IIIB, MT2, read-out: IC50, HIV-1 inhibition in MT-2 cell assay): 0.32 µM
- IC50 (CD4-gp120 interaction): 1.3 µM
- fluorescence of ARM-H-recruited anti-DNP antibodies in the presence of competing ligand (CHO-gp120 cells [2]): considerably diminished

Compound: C#CCOCCOCCOCCOCCNc1ccc([N+](=O)[O-])cc1[N+](=O)[O-] [Formula 2, N-(2,4-dinitrophenyl)-3,6,9,12-tetraoxapentadec-14-yn-1-amine]
- fluorescence of ARM-H-recruited anti-DNP antibodies in the presence of competing ligand (CHO-gp120 cells [2]): considerably diminished

Compound: Cc1cn([C@H]2C=C[C@@H](CO)O2)c(=O)[nH]c1=O [d4T]
- IC50 (wild-type HIV IIIB; live HIV-1, human MT-2 T-cell line, read-out: IC50, HIV-1 inhibition in MT-2 cell assay): 4.2 µM

Compound: O=[N+]([O-])c1ccc(S(=O)(=O)O)c([N+](=O)[O-])c1 [dinitrobenzenesulfonic acid, 2,4-dinitrobenzenesulfonic acid]
- cell death on labeling of CHO-K1 cells (CHO-K1 cells): Significant cell death
